Test [1] concerns LAD2 mast cells. The experiment in a line: β-Hexosaminidase release. The class given is cell-based, human. The settings on record: 37°C.
Test [2] has as its system LAD2 mast cells. The experiment in a line: LL-37 internalization into LAD2 cells. The settings on record: 37°C. The class given is cell-based, human.
The mark [3] stands for this setting: genistein 10 µM, 30 min pre-treatment, then LL-37 5 µM, 40 min.
The mark [4] stands for this setting: pertussis toxin 250 ng/ml, 1 h pre-treatment, then LL-37 5 µM for 40 min.
Setting [5] is: chlorpromazine 2.5 µM, 30 min pre-treatment, then LL-37 5 µM, 40 min.

Structures can show the parent of a compound that is named as a salt.

Turning to `O=c1c(-c2ccc(O)cc2)coc2cc(O)cc(O)c12` [genistein], in the test with LAD2 mast cells [1] (setting [3]), the “effect on LL-37-induced degranulation (β-hexosaminidase release)” value (“effect on LL-37-induced degranulation” for short) was “did not affect”. Further, in the test with LAD2 mast cells [2] (setting [3]), the “effect on LL-37 internalization (fluorescence intensity)” value (“effect on LL-37 internalization” below) is “did not affect”.
Turning to pertussis toxin, the “effect on LL-37-induced degranulation” value with LAD2 mast cells [1] (setting [4]) is on record as “significantly suppressed”. Besides, the “effect on LL-37 internalization” value in the test on LAD2 mast cells [2] (setting [4]) is “significantly suppressed”.
In the case of `O=C(N/N=C/c1ccc(O)c(O)c1)c1cc2ccccc2cc1O` [dynasore, Dynasore], the “effect on LL-37-induced degranulation” value in the test with LAD2 mast cells [1] (dynasore 10 µM, 30 min pre-treatment, then LL-37 5 µM, 40 min) is recorded as “inhibited degranulation”.
Regarding `CN(C)CCCN1c2ccccc2Sc2ccc(Cl)cc21` [chlorpromazine, Chlorpromazine hydrochloride], in the test with LAD2 mast cells [1] (setting [5]), the “effect on LL-37-induced degranulation” value is reported as “inhibited degranulation”. In addition, the “effect on LL-37 internalization” value in the test on LAD2 mast cells [2] (setting [5]) is on record as “suppressed LL-37 internalization”.

Values taken from publication PMC6236315 (Molecular Medicine Reports, 2018).
